Test results: US12054486B2, “Pyridine derivatives and their use as sodium channel activators” (Xenon Pharmaceuticals Inc., priority 2021, dated 2024)
Structures can show the parent of a compound that is named as a salt.

Biological target: sodium channel isoforms of interest stably expressed in Human Embryonic Kidney Cells (voltage-gated sodium channel, particularly NaV1.1) (Homo sapiens, UniProt P35498)
Assay: automated planar patch clamp assay of sodium channel gating (area under the sodium current trace)
Assay type: cell-based
Details: HEK cells, voltage step from −120 mV to 0 mV, increasing concentrations
Text: A typical assay described in Crestey, F. et al., ACS Chem Neurosci (2015), Vol. 6, pp. 1302-1308, AA43279 (Frederiksen, K. et al., Eur J Neurosci (2017), Vol. 46, pp. 1887-1896) and Lu AE98134 (von Schoubyea, N. L. et al., Neurosci Lett (2018), Vol. 662, pp. 29-35) employs the use of automated planar patch clamp techniques to study the effects of the chemical agent on the gating of sodium channels. The sodium channel isoforms of interest are stably expressed in Human Embryonic Kidney Cells and the currents that flow through those channels in response to a depolarizing voltage clamp step from −120 mV to 0 mV are measured in the presence of increasing concentrations of the chemical agents. The area under the sodium current trace which correlates to the magnitude of sodium flux through the cell membrane is used to quantify the effects on gating of the channels. Other parameters that are measured in the assay include the peak current, time constant of open state inactivation and the voltage dependence of steady state inactivation properties. The concentration responses are used to determine potency of each chemical agents effects on modulating the sodium channel isoform gating. Such techniques are known to those skilled in the art, and may be developed, using current technologies, into low or medium throughput assays for evaluating compounds for their ability to modulate sodium channel behaviour.
As disclosed above, typical assays for testing compounds of the disclosure are known, for example as disclosed in Crestey, F. et al., ACS Chem Neurosci (2015), Vol. 6, pp. 1302-1308, AA43279 (Frederiksen, K. et al., Eur J Neurosci (2017), Vol. 46, pp. 1887-1896) and Lu AE98134 (von Schoubyea, N. L. et al., Neurosci Lett (2018), Vol. 662, pp. 29-35) which employs the use of automated planar patch clamp techniques to study the effects of the chemical agent on the gating of sodium channels. The sodium channel isoforms of interest are stably expressed in Human Embryonic Kidney Cells and the currents that flow through those channels in response to a depolarizing voltage clamp step from −120 mV to 0 mV are measured in the presence of increasing concentrations of the chemical agents. The area under the sodium current trace which correlates to the magnitude of sodium flux through the cell membrane is used to quantify the effects on gating of the channels. Other parameters that are measured in the assay include the peak current, time constant of open state inactivation and the voltage dependence of steady state inactivation properties. The concentration responses are used to determine potency of each chemical agents effects on modulating the sodium channel isoform gating.

| Structure (SMILES) | EC50 [µM] | Empirical Emax |
| --- | --- | --- |
| Fc1ccc(F)c(-c2ccnc(N3CC[C@H](F)C3)c2-c2nc3cnc(Cl)cc3[nH]2)c1 [Example 1, (S)-6-chloro-2-(4-(2,5-difluorophenyl)-2-(3-fluoropyrrolidin-1-yl)pyridin-3-yl)-1H-imidazo[4,5-c]pyridine] | < 1 | ++++ (++++ indicates a value greater than 7.5) |
| Fc1ccccc1-c1ccnc(N2CCCC2)c1-c1nc2ncccc2[nH]1 [Example 2, 2-(4-(2-fluorophenyl)-2-(pyrrolidin-1-yl)pyridine-3-yl)-1H-imidazo[4,5-b]pyridine] | 1 to 10 | ++++ (++++ indicates a value greater than 7.5) |
| Fc1ccccc1-c1ccnc(N2CCCC2)c1-c1nc2ccccc2[nH]1 [Example 3, 2-(4-(2-fluorophenyl)-2-(pyrrolidin-1-yl)pyridin-3-yl)-1H-benzo[d]imidazole] | 1 to 10 | ++++ (++++ indicates a value greater than 7.5) |
| Nc1nnc(-c2c(-c3ccccc3F)ccnc2N2CCCC2)o1 [Example 4, 5-(4-(2-fluorophenyl)-2-(pyrrolidin-1-yl)pyridin-3-yl)-1,3,4-oxadiazol-2-amine] | ≥ 50 | +++ (+++ indicates a value from 5.0 up to 7.5 μM) |
| CC(C)CC1CN=C(c2c(-c3ccccc3F)ccnc2N2CCCC2)N1 (stereo not drawn) [Example 5, 4-(2-fluorophenyl)-3-(5-isobutyl-4,5-dihydro-1H-imidazol-2-yl)-2-(pyrrolidin-1-yl)pyridine] | 1 to 10 | + (+ indicates a value less than 2.0 μM) |
| Clc1ccccc1-c1ccnc(N2CCCC2)c1-c1nc2ccccc2[nH]1 [Example 6, 2-(4-(2-chlorophenyl)-2-(pyrrolidin-1-yl)pyridin-3-yl)-1H-benzo[d]imidazole] | 1 to 10 | ++ (++ indicates a value from 2.0 up to 5.0 μM) |
| Cc1ccccc1-c1ccnc(N2CCCC2)c1-c1nc2ccccc2[nH]1 [Example 7, 2-(2-(pyrrolidin-1-yl)-4-(o-tolyl)pyridin-3-yl)-1H-benzo[d]imidazole] | 1 to 10 | ++ (++ indicates a value from 2.0 up to 5.0 μM) |
| Cc1ccccc1-c1ccnc(N2CCOCC2)c1-c1nc2ccccc2[nH]1 [Example 8, 4-(3-(1H-benzo[d]imidazol-2-yl)-4-(o-tolyl)pyridin-2-yl)morpholine] | 10 to 50 | +++ (+++ indicates a value from 5.0 up to 7.5 μM) |
| Fc1ccccc1-c1ccnc(N2CC[C@H](F)C2)c1-c1nnco1 [Example 9, (S)-2-(4-(2-fluorophenyl)-2-(3-fluoropyrrolidin-1-yl)pyridin-3-yl)-1,3,4-oxadiazole] | ≥ 50 | ++ (++ indicates a value from 2.0 up to 5.0 μM) |
| c1ccc(-c2ccnc(N3CCCC3)c2-c2nc3ccccc3[nH]2)nc1 [Example 10, 2-(2′-(pyrrolidin-1-yl)-[2,4′-bipyridin]-3′-yl)-1H-benzo[d]imidazole] | 10 to 50 | ++ (++ indicates a value from 2.0 up to 5.0 μM) |
| Fc1ccccc1-c1ccnc(N2CCCC2)c1-c1nc2ccncc2[nH]1 [Example 11, 2-(4-(2-fluorophenyl)-2-(pyrrolidin-1-yl)pyridin-3-yl)-3H-imidazo[4,5-c]pyridine Formic Acid Salt] | 1 to 10 | ++++ (++++ indicates a value greater than 7.5) |
| CCCCNc1nnc(-c2c(-c3ccccc3F)ccnc2N2CC[C@H](F)C2)o1 [Example 12, (S)—N-butyl-5-(4-(2-fluorophenyl)-2-(3-fluoropyrrolidin-1-yl)pyridin-3-yl)-1,3,4-oxadiazol-2-amine] | 10 to 50 | ++ (++ indicates a value from 2.0 up to 5.0 μM) |
| CC(C)CCc1nnc(-c2c(-c3ccccc3O)ccnc2N2CC[C@H](F)C2)o1 [Example 13, (S)-2-(2-(3-fluoropyrrolidin-1-yl)-3-(5-isopentyl-1,3,4-oxadiazol-2-yl)pyridin-4-yl)phenol] | ≥ 50 | + (+ indicates a value less than 2.0 μM) |
| F[C@H]1CCN(c2nccc(C3=CCCC3)c2-c2nc3ccccc3[nH]2)C1 [Example 14, (S)-2-(4-(cyclopent-1-en-1-yl)-2-(3-fluoropyrrolidin-1-yl)pyridin-3-yl)-1H-benzo[d]imidazole] | 1 to 10 | ++ (++ indicates a value from 2.0 up to 5.0 μM) |
| Fc1cccnc1-c1ccnc(N2CCCC2)c1-c1nc2ccccc2[nH]1 [Example 15, 2-(3-fluoro-2′-(pyrrolidin-1-yl)-[2,4′-bipyridin]-3′-yl)-1H-benzo[d]imidazole] | 10 to 50 | ++++ (++++ indicates a value greater than 7.5) |
| c1ccc(-c2ccnc(N3CCCC3)c2-c2nc3ccccc3[nH]2)cc1 [Example 16, 2-(4-phenyl-2-(pyrrolidin-1-yl)pyridin-3-yl)-1H-benzo[d]imidazole] | 1 to 10 | +++ (+++ indicates a value from 5.0 up to 7.5 μM) |
| F[C@H]1CCN(c2nccc(-c3ccccc3)c2-c2nc3ccccc3[nH]2)C1 [Example 17, (S)-2-(2-(3-fluoropyrrolidin-1-yl)-4-phenylpyridin-3-yl)-1H-benzo[d]imidazole] | 1 to 10 | ++++ (++++ indicates a value greater than 7.5) |
| Fc1ccccc1-c1ccnc(N2CC[C@H](F)C2)c1-c1nc2ccccc2[nH]1 [Example 18, (S)-2-(4-(2-fluorophenyl)-2-(3-fluoropyrrolidin-1-yl)pyridin-3-yl)-1H-benzo[d]imidazole] | 1 to 10 | ++++ (++++ indicates a value greater than 7.5) |
| F[C@H]1CCN(c2nccc(-c3ccccc3)c2-c2cc(-c3cccnc3)[nH]n2)C1 [Example 19, (S)-2-(3-fluoropyrrolidin-1-yl)-4-phenyl-3-(5-(pyridin-3-yl)-1H-pyrazol-3-yl)pyridine] | 10 to 50 | ++ (++ indicates a value from 2.0 up to 5.0 μM) |
| CC(C)c1ccc(-c2cc(-c3c(-c4ccccc4)ccnc3N3CC[C@H](F)C3)n[nH]2)cc1 [Example 20, (S)-2-(3-fluoropyrrolidin-1-yl)-3-(5-(4-isopropylphenyl)-1H-pyrazol-3-yl)-4-phenylpyridine] | 10 to 50 | ++ (++ indicates a value from 2.0 up to 5.0 μM) |
| Fc1cc(F)cc(-c2ccnc(N3CCCC3)c2-c2nc3ccccc3[nH]2)c1 [Example 23, 2-(4-(3,5-difluorophenyl)-2-(pyrrolidin-1-yl)pyridin-3-yl)-1H-benzo[d]imidazole] | 1 to 10 | ++ (++ indicates a value from 2.0 up to 5.0 μM) |
| F[C@H]1CCN(c2nccc(-c3ccccc3)c2C2=N[C@@H]3CCCC[C@H]3N2)C1 [Example 24, (3aR,7aR)-2-(2-((S)-3-fluoropyrrolidin-1-yl)-4-phenylpyridin-3-yl)-3a,4,5,6,7,7a-hexahydro-1H-benzo[d]imidazole] | 1 to 10 | + (+ indicates a value less than 2.0 μM) |
| c1ccc(-c2ccnc(N3CCOCC3)c2C2=N[C@@H]3CCCC[C@H]3N2)cc1 [Example 25, 4-(3-((3aR,7aR)-3a,4,5,6,7,7a-hexahydro-1H-benzo[d]imidazol-2-yl)-4-phenylpyridin-2-yl)morpholine] | 1 to 10 | + (+ indicates a value less than 2.0 μM) |
| CC1CN=C(c2c(-c3ccccc3)ccnc2N2CC[C@H](F)C2)N1 (stereo partly drawn) [Example 26, 2-((S)-3-fluoropyrrolidin-1-yl)-3-(5-methyl-4,5-dihydro-1H-imidazol-2-yl)-4-phenylpyridine] | 1 to 10 | + (+ indicates a value less than 2.0 μM) |
| Cc1[nH]c(-c2c(-c3ccccc3)ccnc2N2CC[C@H](F)C2)nc1Br [Example 27, (S)-3-(4-bromo-5-methyl-1H-imidazol-2-yl)-2-(3-fluoropyrrolidin-1-yl)-4-phenylpyridine] | 1 to 10 | ++ (++ indicates a value from 2.0 up to 5.0 μM) |
| c1ccc(-c2cnnc(N3CCCC3)c2-c2nc3ccccc3[nH]2)cc1 [Example 28, 2-(5-phenyl-3-(pyrrolidin-1-yl)pyridazin-4-yl)-1H-benzo[d]imidazole] | 10 to 50 | ++ (++ indicates a value from 2.0 up to 5.0 μM) |
| F[C@H]1CCN(c2nccc(-c3ccccc3)c2-c2nc3c([nH]2)CCCC3)C1 [Example 29, (S)-2-(2-(3-fluoropyrrolidin-1-yl)-4-phenylpyridin-3-yl)-4,5,6,7-tetrahydro-1H-benzo[d]imidazole] | < 1 | ++ (++ indicates a value from 2.0 up to 5.0 μM) |
